Experiments:
[1] = test system: pentagastrin evoked gastric secretion; assay: Pentagastrin evoked gastric secretion in chronic fistula beagle dogs; assay type: in vivo; conditions: 0.8 γ/kg./min. infused 0-60 min.
Experimental: The effect of somatostatin and its analogs on gastric secretion were determined by the following method:
Compounds were tested for their ability to inhibit pentagastrin evoked gastric secretion in the chronic fistula dog. Female beagle dogs with a chronic gastric fistula were given pentagastrin (2.5 μg./kg./hour, i.v. from -60 to 120 min.) and gastric outputs were collected via the fistula cannula. Samples were analyzed at 30 minute intervals for volume (ml.) and titratable acid (mEq/L) (titration […] with 0.01N NaOH); total acid output (mEq) was calculated as the product of output volume and acid concentration. Test compounds were infused at a constant rate from 0 to 60 minutes. Data have been expressed as percent change of total acid output relative to a placebo trial in the same animals.

[2] = test system: plasma insulin; assay: Inhibition of insulin: lowering of portal vein plasma insulin in anesthetized rats; assay type: in vivo, rats (male Sprague-Dawley); conditions: somatostatin = 1; i.v. via external jugular vein, portal vein blood after 5 minutes; limits in parentheses
Experimental: (§1) The relative potencies of somatostatin analogs on the lowering of plasma insulin and glucagon are determined by the following method:
(§2) Analogs of somatostatin were compared to somatostatin in their ability to lower the levels of portal vein glucagon and insulin in anesthetized rats. Male Sprague-Dawley rats (Charles River CD) weighing 160-200 grams were anesthetized with urethane (150 mg./100 gm.) Saline or peptides were administered via the external jugular vein. After 5 minutes the portal vein was exposed and blood was collected via syringes containing 3 mg. EDTA and placed in chilled tubes containing 100 μl. of Trasylol (obtained from FBA Pharmaceuticals) for subsequent hormone analysis. Plasma levels of glucagon were determined by the method of Faloona, G. R., and Unger, R. H. "Glucagon" in Methods of Hormone Radioimmunoassay, eds. […] Plasma levels of insulin were determined by a modification of the procedure of Herbert, V., Lau, K. S. Gottlieb, C. […]
(§3) Doses were randomized between groups of animals (6 rats/group). Potency values were determined by four, six, or eight point bioassays with somatostatin as the reference standard. Relative potency values were calculated by a relative potency formula for parallel line bioassays as described in Finney, D. J. Statistical Method in Biological Assay (Charles Griffin and Co., Ltd., London) Chap. […]

[3] = test system: Rat pituicytes; assay: Growth hormone inhibition in vitro; assay type: cell-based; conditions: somatostatin = 1, 4 hours incubation, limits in parentheses
Experimental: Rat pituicytes were isolated according to the procedures of Vale and Grant "In vitro Pituitary Hormone Secretion Assay for Hypophysiotropic Substances" in Methods in Enzymology. Vol. XXXVII, eds. O'Malley, B. W. and Hardman, J. G. (Academic Press, Inc., New York) pp. 5-93 (1975).
After 4 days in culture, the cells were washed and incubated for 4 hours in Dulbecco-modified Eagle's medium in the presence or absence of graded doses of each analog or somatostatin. The medium was then collected for subsequent growth hormone determination by a double antibody radioimmunoassay for rat growth hormone.
(§4) Doses were randomized between groups of animals (6 rats/group). Potency values were determined by four, six, or eight point bioassays with somatostatin as the reference standard. Relative potency values were calculated by a relative potency formula for parallel line bioassays as described in Finney, D. J. Statistical Method in Biological Assay (Charles Griffin and Co., Ltd., London) Chap. 4 pp. 99-138 (1964).

[4] = test system: growth hormone release; assay: Inhibition of pentobarbital stimulated growth hormone release in vivo; parameters: species or system rats; conditions: somatostatin = 1; subcutaneous injection, blood after 15 minutes; limits in parentheses
Experimental: Somatostatin analogs were compared to somatostatin in their ability to inhibit the release of growth hormone in pentobarbital stimulated rats; a modification of the procedure of Brazeau et al. Endocrinology, 94, 184-187 (1974) was employed. Rats were lightly etherized and sodium pentobarbital (17 mg./Kg. was injected into the exposed Saphenous vein; somatostatin or analog was simultaneously injected subcutaneously. After 15 minutes the animals were bled via the orbital sinus and blood collected for subsequent growth hormone analysis.
as §4

[5] = test system: plasma glucagon; assay: Inhibition of glucagon: lowering of portal vein plasma glucagon in anesthetized rats; assay type: in vivo, rats (male Sprague-Dawley); conditions: somatostatin = 1; i.v. via external jugular vein, portal vein blood after 5 minutes; limits in parentheses
Experimental: as §1, §2, §3

C[C@H](N)C(=O)NCC(=O)N[C@H]1CSSC[C@@H](C(=O)O)NC(=O)[C@H](CO)NC(=O)[C@H]([C@@H](C)O)NC(=O)[C@H](Cc2ccccc2)NC(=O)[C@H]([C@@H](C)O)NC(=O)[C@H](CCCCN)NC(=O)[C@H](Cc2c[nH]c3ccccc23)NC(=O)[C@H](Cc2ccccc2)NC(=O)[C@H](Cc2ccccc2)NC(=O)[C@H](CC(N)=O)NC(=O)[C@H](CCCCN)NC1=O [(I), Somatostatin]
Titratable acid, percent change, during 0-30 ([1]; sample 0-30 min, during treatment): -16%
Total acid output, percent change, during 0-30 ([1]; sample 0-30 min, during treatment, relative to placebo trial in the same animals): -89%
Titratable acid, percent change, during 30-60 ([1]; sample 30-60 min, during treatment): -17%
Total acid output, percent change, during 30-60 ([1]; sample 30-60 min, during treatment, relative to placebo trial in the same animals): -99%
Titratable acid, percent change, post-treat 60-90 ([1]; sample 60-90 min, post-treatment): -61%
Total acid output, percent change, post-treat 60-90 ([1]; sample 60-90 min, post-treatment, relative to placebo trial in the same animals): -93%
Titratable acid, percent change, post-treat 90-120 ([1]; sample 90-120 min, post-treatment): -41%
Total acid output, percent change, post-treat 90-120 ([1]; sample 90-120 min, post-treatment, relative to placebo trial in the same animals): -45%
Inhibition of Insulin, potency relative to somatostatin [2]: 1
Growth Hormone Inhibition In Vitro, potency relative to somatostatin [3]: 1
Inhibition of Pentobarbital Stimulated Growth Hormone Release In Vivo, potency relative to somatostatin [4]: 1
Inhibition of Glucagon, potency relative to somatostatin [5]: 1

— patent US4139526A, “Somatostatin analogs” (Merck & Co., Inc., priority 1977, dated 1979)
